Measured values: ChEMBL document CHEMBL1201862, “PubChem BioAssay data set” (2004)
Active and inactive are the calls of the source.

What was measured:
[1] = Luminescence Cell-Based Dose Response HTS to Identify Activators of Luciferase Translation or Activity in H4 […] Cells. [Related pubchem assays: 1829 (Project Summary), 1814 (Primary HTS)]; assay type: functional
H4 = experiment: Luminescence Cell-Based Dose Response HTS to Identify Activators of 5'UTR Stem-Loop Driven Prion Protein mRNA Translation in H4 Neuroglioblastoma Cells. [Related pubchem assays: 1829 (Project Summary), 1814 (Primary HTS)]; assay type: functional; conditions: Homo sapiens
[2] = biological target: T1, Replicative DNA helicase DnaB (Mycobacterium tuberculosis, UniProt P9WMR3); experiment: DnaB intein splicing inhibitors, dose response, biochemical, cell-free fluorescence (AID 449749); assay type: functional
T1 sequence (P9WMR3 whole entry): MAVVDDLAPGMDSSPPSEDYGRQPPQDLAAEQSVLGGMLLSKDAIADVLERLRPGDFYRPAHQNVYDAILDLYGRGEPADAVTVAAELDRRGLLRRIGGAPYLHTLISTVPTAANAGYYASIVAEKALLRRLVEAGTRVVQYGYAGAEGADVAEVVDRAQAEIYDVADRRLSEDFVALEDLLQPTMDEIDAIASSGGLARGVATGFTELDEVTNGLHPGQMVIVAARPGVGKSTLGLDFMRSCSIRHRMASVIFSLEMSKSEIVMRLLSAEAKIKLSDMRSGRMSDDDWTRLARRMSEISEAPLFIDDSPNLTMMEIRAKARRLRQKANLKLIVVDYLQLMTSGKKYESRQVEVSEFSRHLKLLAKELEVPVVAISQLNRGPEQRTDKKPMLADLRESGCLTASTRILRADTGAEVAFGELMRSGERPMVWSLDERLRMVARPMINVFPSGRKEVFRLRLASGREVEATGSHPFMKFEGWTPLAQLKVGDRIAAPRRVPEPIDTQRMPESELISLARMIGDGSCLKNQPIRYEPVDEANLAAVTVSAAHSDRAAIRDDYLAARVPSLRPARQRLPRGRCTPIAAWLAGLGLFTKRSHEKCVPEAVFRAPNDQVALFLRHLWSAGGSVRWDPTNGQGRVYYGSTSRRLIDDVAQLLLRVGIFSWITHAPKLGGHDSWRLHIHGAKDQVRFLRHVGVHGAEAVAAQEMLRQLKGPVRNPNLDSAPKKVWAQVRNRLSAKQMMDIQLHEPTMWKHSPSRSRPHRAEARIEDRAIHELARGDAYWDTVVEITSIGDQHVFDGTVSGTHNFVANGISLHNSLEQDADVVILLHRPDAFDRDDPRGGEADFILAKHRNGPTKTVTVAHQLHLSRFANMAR

Protein RecA = biological target: T2, Protein RecA (Mycobacterium tuberculosis, UniProt P9WHJ3); experiment: Fluorescence Cell-Free Homogeneous Dose Retest to Identify Inhibitors of RecA-Intein Splicing Activity. [Related pubchem assays (depositor defined):AID2097, AID2223, AID489010, AID492950]; assay type: functional
T2 sequence (P9WHJ3 whole entry): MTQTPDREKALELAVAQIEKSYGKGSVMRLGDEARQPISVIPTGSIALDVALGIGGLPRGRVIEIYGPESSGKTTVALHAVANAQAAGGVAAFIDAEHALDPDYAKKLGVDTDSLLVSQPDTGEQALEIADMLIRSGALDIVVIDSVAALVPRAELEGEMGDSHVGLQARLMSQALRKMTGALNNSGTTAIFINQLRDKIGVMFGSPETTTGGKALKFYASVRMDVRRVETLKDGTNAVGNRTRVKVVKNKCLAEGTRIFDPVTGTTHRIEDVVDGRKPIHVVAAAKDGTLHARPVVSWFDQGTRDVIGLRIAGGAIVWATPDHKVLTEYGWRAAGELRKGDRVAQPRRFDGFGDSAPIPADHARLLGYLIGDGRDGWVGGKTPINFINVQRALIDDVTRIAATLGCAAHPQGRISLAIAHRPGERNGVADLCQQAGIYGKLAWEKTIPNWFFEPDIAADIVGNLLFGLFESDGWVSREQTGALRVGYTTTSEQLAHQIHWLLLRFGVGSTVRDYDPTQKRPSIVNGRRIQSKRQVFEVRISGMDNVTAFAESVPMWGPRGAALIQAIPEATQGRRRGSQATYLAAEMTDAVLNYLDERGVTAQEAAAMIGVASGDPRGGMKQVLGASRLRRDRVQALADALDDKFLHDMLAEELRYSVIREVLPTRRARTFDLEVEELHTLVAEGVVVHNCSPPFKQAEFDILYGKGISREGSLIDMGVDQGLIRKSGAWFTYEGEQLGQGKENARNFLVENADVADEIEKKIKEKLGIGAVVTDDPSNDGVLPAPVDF

[3] = Luminescence Cell-Based Dose Confirmation HTS to Identify Activators of 5'UTR Stem-Loop Driven Alpha-Synuclein mRNA Translation in H4 Neuroglioblastoma Cells. [Related pubchem assays: 1829 (Project Summary), 1814 (Primary HTS)]; assay type: functional
[4] = Shn3 3'UTR reporter inhibitors, dose response, cell-based, Clone20 osteoblasts, firefly luciferase, cherry-picked (AID 624132); assay type: functional;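 note: firefly luciferase luminescence from reporter carrying the Shn3 3'UTR in osteoblasts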
[5] = inhibitors of intracellular T. cruzi replication, confirmation, NIH3T3 host cells, beta-gal luminescence (AID 2044); assay type: functional, cell-based;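 note: intracellular parasites grown in NIH/3T3 mouse fibroblasts as host cells; luminescent beta-galactosidase reporter signal from transgenic T. cruzi replicating inside host cells; inhibitors lower the luminescence signal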
[6] = HepG2 cell cytotoxicity, dose response, cytotoxicity control for Shn3 inhibitor project, CellTiter-Glo, cherry-picked (AID 624134); assay type: functional, cell-based
[7] = cytotoxicity toward NIH3T3 fibroblasts, dose response, counter-screen, cell-based, ATP luminescence, mouse fibroblasts (AID 2010); assay type: functional;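 note: cells exposed to compound for about 90 hours before reading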
[8] = control 3'UTR Renilla luciferase suppression, dose response, counter-screen for Shn3 inhibitor project, cell-based, Clone20-Shn3RL, cherry-picked (AID 624133); assay type: functional
[9] = Luminescence Cell-Based Dose Retest to Confirm Inhibitors of Cancer Stem Cells. [Related pubchem assays (depositor defined):AID2717, AID2721]; assay type: functional; conditions: Homo sapiens
[10] = biological target: T3, Carboxy-terminal domain RNA polymerase II polypeptide A small phosphatase 1 (Homo sapiens, UniProt Q9GZU7); experiment: inhibitors of CTDSP1, concentration-response testing, biochemical assay, absorbance-based, actives from ultra-high-throughput screening (AID 540297); assay type: functional
T3 sequence (Q9GZU7 whole entry): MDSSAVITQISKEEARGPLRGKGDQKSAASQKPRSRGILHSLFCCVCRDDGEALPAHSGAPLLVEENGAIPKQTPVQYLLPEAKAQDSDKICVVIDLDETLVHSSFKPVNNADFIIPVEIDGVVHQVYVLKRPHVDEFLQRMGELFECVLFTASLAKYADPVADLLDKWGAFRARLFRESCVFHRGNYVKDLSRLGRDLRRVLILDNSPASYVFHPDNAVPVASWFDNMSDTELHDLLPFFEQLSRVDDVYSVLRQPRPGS

[11] = Luminescence Cell-Based Dose Confirmation HTS to Identify Inhibitors of Platelet Dense Granule Release. [Related pubchem assays: 1663 (Primary HTS), 1678 (Summary of Project)]; assay type: functional
[12] = biological target: Luciferin 4-monooxygenase (Photinus pyralis, UniProt P08659); experiment: firefly luciferase enzyme inhibitors, dose response, biochemical, luminescence (AID 1891)
Sequence of Luciferin 4-monooxygenase (P08659 whole entry): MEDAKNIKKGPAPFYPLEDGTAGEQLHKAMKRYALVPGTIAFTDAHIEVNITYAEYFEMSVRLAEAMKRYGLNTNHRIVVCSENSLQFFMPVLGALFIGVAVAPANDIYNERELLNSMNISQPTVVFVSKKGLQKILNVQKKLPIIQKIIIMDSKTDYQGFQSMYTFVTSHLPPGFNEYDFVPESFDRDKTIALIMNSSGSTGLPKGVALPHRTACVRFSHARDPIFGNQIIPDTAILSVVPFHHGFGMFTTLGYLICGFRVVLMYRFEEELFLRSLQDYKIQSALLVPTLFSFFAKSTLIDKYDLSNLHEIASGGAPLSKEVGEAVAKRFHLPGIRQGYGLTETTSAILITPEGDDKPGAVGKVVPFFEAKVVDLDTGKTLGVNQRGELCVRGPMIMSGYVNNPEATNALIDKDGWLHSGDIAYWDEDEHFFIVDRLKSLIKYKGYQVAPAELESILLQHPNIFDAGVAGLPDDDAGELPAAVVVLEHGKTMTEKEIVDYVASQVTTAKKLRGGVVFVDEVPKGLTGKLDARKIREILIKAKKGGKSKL

P388 = experiment: cells; assay type: functional
SN12K1 = experiment: cells; assay type: functional
P388/ADR = experiment: cells; assay type: functional

SMILES	IC50 [10]	GI50 (P388; Mus musculus, P388)	GI50 (SN12K1; Homo sapiens, SN12K1)	GI50 (P388/ADR; Mus musculus, P388/ADR)	further results
O=C1c2ccccc2-c2c1nc1c([n+]2[O-])CCCC1					EC50 [1]: 4.63 µM (active); EC50 (H4): 6.95 µM (active); AC50 [2]: 21 µM (active); EC50 (Protein RecA): 20.1 µM (active); EC50 [3]: 0.262 µM (active)
O=C(Nc1nc2ccccc2s1)C1CCN(S(=O)(=O)c2cc([N+](=O)[O-])ccc2Cl)CC1	3.28 µM (active)				AC50 [4]: 3.07 µM (active); EC50 [5]: 0.713 µM (active); AC50 [6]: 50.7 µM (active); EC50 [7]: > 60 µM (not active); AC50 [8]: 2.18 µM (active); AC50 [9]: 25 µM (active)
COc1cccc2cc(-c3cc(=O)oc4cc(C)c(O)cc34)oc12	9.12 µM (active)				
CCn1cc(C(=O)NCc2ccco2)c(=O)c2cc(F)c(N3CCN(C(=O)c4ccco4)CC3)cc21	17.6 µM (active)				
COc1ccc(C(=O)NCC(=O)Nc2ccc(-c3ccccc3)cc2)cc1	5.62 µM (active)				
Cc1ccc(OCC(=O)NNC(=O)Cn2nnc(-c3ccccc3)n2)cc1	12.7 µM (active)				
COc1ccc(NC(=O)CSc2c3c(nc4cc(Cl)ccc24)CCCC3)cc1OC					AC50 [2]: 8.17 µM (active); EC50 [11]: > 112 µM (not active); EC50 (Protein RecA): 3.1 µM (active); EC50 [12]: > 112 µM (not active)
Nc1ccn(C2CCC(CO)O2)c(=O)n1 (stereo not drawn)		> 100 µM (inactive)	> 100 µM (inactive)	> 80.4 µM (inactive)	
CCOC(=O)NC(=O)c1cn(CCN(CCO)C(=O)NCCCCCCNC(=O)N(CCO)CCn2cc(C(=O)NC(=O)OCC)c(=O)[nH]c2=O)c(=O)[nH]c1=O		> 100 µM (inactive)	> 100 µM (inactive)	> 100 µM (inactive)	
CCCCCCCCCOCC(COP(=O)([O-])OCC[N+](C)(C)C)OC (stereo not drawn)		99.1 µM (inactive)	> 100 µM (inactive)	> 100 µM (inactive)	
CNCCNc1ccc2c3c(nn2CCNCCO)-c2c(O)ccc(O)c2C(=O)c13		0.000867 µM (active)	0.0673 µM (active)	0.216 µM (active)	
CC(C)NC(=O)OCc1c2c(n(C)c1COC(=O)NC(C)C)-c1ccccc1CC2		1.79 µM (inactive)	12 µM (inactive)	2 µM (inactive)	
CC(/C=C/c1ccco1)=N\NC(=O)c1cc(Cl)ccc1O	10.7 µM (active)				
CC[C@]1(O)C[C@H]2CN(CCc3c([nH]c4ccccc34)[C@@](C(=O)OC)(c3cc4c(cc3OC)N(C)[C@H]3[C@@](O)(C(=O)OC)[C@H](OC(C)=O)[C@]5(CC)C=CCN6CC[C@]43[C@@H]65)C2)C1		0.000674 µM (active)	0.000348 µM (active)	0.103 µM (active)	
Cc1c2cc[n+](C)cc2c(C)c2c1[nH]c1ccccc12					GI50 (P388): 1.12 µM (inactive); GI50 (SN12K1): 0.385 µM (active); GI50 (P388/ADR): 70 µM (inactive)
CCCCCCc1ccc(O)cc1O [HEXYLRESORCINOL]		48.4 µM (inactive)	37.5 µM (inactive)	45.2 µM (inactive)	EC50 [5]: 0.781 µM (active); EC50 [7]: > 30 µM (not active)
O=C1CNC(=O)N1 [HYDANTOIN]		630 µM (inactive)	> 1120 µM (inactive)	706 µM (inactive)	
O=C1N[C@@H]2C(=C[C@H](O)[C@@H](O)[C@H]2O)c2cc3c(c(O)c21)OCO3 [NARCICLASINE]		0.045 µM (active)	0.045 µM (active)	0.045 µM (active)	
